# Test results published in patent US20250051319A1 (AUGUSTINE THERAPEUTICS, priority 2021, published 2025).
# Columns and labels:
# [1] = target: catalytic domain 2 (CD2) of HDAC6 (Homo sapiens (Human), UniProt Q9UBN7); experiment: Cellular target engagement assay - NanoBRET; assay type: cell-based; conditions: NanoLuc-HDAC6(CD2) in HEK293T cells, 2 hours, read-out: IC50 (HDAC6(CD2) interaction)
# [2] = target: human full-length recombinant HDAC1 (Homo sapiens (Human), UniProt Q13547); experiment: HDAC1 enzymatic activity assay (alternative protocol, Ac-Gly-Ala-Lys(Ac)-AMC); assay type: biochemical; conditions: 4 nM enzyme, read-out: HDAC1 biochem
# Protocol: (§1) Inhibition of HDAC enzymes was performed in 384-well plate format using human full-length recombinant HDAC1 and HDAC6, isolated from a baculovirus expression system in Sf9 cells (BPS Bioscience). Reaction buffer for HDAC1 contained 50 mM Tris HCl pH 8.0, 137 mM NaCl, 2.7 mM KCl, 1 mM MgCl2, 0.1 mg/mL BSA, and reaction buffer for HDAC6 contained 50 mM Tris/HCl, pH 8.0, 137 mM NaCl, 2.7 mM KCl, 250 μM EDTA, 1 mM DTT, 0.1 mg/mL BSA. Compounds (dissolved in 100% DMSO) or DMSO (vehicle) were diluted in assay buffer at 3× final assay concentration and then added to assay plates. SAHA ([…]) was used as a positive control. 3× final assay concentration of recombinant enzymes (final assay concentration is 4 nM and 5 nM for HDAC1 and HDAC6, respectively) were preincubated for 10 minutes with test compounds at room temperature. Afterwards, 3× final assay concentration of an acetylated fluorogenic peptide (Ac-Gly-Ala-Lys(Ac))-AMC, Bachem; final assay concentration is 12 µM and 40 µM for HDAC1 and HDAC6, respectively) was added to assay plate, allowing deacetylase reactions to incubate for 60 minutes at room temperature. The developer reagent containing 5 μM SAHA and 50 μM trypsin was added to stop the deacetylase reaction and generate AMNC-fluorescence. 15 minutes after addition of developer reagent, endpoint measurements were taken using CLARIOstar (BMG Labtech) plate reader (excitation/emission: 360/450). Fluorescence signals were normalized for each plate using GraphPad Prism software: reaction HDAC-substrate in presence of DMSO was set to 100% while reaction HDAC-substrate in presence of 10 μM SAHA was set to 0%.
# [3] = target: human full-length recombinant HDAC6 (Homo sapiens (Human), UniProt Q9UBN7); experiment: HDAC6 enzymatic activity assay (alternative protocol, Ac-Gly-Ala-Lys(Ac)-AMC); assay type: biochemical; conditions: 5 nM enzyme, read-out: HDAC6 biochem
# Protocol: as §1
# Sequence of human full-length recombinant HDAC1 (Q13547 whole entry): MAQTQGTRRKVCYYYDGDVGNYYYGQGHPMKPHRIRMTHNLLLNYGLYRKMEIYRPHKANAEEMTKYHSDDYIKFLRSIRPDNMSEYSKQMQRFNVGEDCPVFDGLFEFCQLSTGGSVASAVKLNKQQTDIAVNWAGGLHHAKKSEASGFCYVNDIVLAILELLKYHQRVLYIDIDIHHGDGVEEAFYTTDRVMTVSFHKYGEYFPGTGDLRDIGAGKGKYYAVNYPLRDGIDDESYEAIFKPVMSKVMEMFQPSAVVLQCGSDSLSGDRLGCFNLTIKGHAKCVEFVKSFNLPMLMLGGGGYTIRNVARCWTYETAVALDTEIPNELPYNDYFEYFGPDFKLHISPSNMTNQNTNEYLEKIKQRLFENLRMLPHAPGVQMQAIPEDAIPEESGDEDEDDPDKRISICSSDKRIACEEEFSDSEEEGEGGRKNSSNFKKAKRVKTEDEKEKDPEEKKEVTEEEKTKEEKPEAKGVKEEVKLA
# Sequence of human full-length recombinant HDAC6 (Q9UBN7 whole entry): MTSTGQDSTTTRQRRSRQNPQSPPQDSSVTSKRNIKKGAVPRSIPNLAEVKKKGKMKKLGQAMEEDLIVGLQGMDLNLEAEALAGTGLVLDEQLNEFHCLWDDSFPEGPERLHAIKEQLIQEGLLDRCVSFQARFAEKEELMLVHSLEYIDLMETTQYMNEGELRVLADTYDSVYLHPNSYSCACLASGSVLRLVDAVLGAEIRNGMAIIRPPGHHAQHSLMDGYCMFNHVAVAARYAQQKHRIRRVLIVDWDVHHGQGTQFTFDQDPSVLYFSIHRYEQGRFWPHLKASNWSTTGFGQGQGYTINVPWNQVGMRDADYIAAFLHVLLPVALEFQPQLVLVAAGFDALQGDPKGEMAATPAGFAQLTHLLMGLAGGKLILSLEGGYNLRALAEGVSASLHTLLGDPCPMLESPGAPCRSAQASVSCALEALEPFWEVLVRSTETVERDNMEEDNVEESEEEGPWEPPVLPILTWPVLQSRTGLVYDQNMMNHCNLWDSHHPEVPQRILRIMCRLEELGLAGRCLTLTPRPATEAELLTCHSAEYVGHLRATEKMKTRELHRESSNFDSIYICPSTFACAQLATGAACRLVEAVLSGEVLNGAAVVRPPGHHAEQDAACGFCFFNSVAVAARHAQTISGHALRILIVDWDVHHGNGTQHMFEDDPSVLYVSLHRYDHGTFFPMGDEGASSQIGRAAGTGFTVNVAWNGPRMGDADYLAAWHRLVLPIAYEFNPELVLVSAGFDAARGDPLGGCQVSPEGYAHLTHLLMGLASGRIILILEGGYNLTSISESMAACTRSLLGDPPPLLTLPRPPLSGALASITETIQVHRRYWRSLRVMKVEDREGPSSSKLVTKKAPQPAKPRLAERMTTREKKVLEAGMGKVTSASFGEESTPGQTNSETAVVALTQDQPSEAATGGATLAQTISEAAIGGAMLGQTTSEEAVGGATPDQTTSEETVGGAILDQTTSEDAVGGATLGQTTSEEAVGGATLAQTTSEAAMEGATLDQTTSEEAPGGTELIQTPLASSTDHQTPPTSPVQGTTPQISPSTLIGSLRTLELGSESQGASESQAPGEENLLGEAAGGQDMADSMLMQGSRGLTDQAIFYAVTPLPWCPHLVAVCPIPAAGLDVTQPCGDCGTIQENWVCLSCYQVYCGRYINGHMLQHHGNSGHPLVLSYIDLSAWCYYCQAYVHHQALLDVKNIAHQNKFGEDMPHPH
# Sequence of catalytic domain 2 (CD2) of HDAC6 (Q9UBN7 482-800): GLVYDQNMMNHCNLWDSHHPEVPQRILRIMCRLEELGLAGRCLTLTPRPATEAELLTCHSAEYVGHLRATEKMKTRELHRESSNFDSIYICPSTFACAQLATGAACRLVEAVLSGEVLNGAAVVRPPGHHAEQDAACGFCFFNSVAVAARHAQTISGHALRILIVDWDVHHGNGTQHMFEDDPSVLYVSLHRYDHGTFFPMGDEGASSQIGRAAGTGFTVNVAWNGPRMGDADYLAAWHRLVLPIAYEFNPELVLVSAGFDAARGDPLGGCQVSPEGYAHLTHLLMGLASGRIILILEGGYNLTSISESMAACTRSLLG
SMILES,IC50 [1] [nM],IC50 [2] [nM],IC50 [3] [nM]
"CN(C)c1nc(SCC(=O)c2ccc(CNC(=O)C(C)(C)C)s2)c2ccccc2n1 [Example 16, N-((5-(2-((2-(dimethylamino)quinazolin-4-yl)thio)acetyl)thiophen-2-yl)methyl)pivalamide]",100 to 500,> 10000,≤ 100
"CC(C)(C)C(=O)NCc1ccc(C(=O)CSc2nc(C(F)F)nc3ccccc23)s1 [Example 19, N-((5-(2-((2-(difluoromethyl)quinazolin-4-yl)thio)acetyl)thiophen-2-yl)methyl)pivalamide]",100 to 500,> 10000,≤ 100
"Cn1ncc2c(SCC(=O)c3ccc(CNC(=O)C(C)(C)C)s3)nc(C(F)(F)F)nc21 [Example 20, N-((5-(2-((1-methyl-6-(trifluoromethyl)-1H-pyrazolo[3,4-d]pyrimidin-4-yl)thio)acetyl)thiophen-2-yl)methyl)pivalamide]",100 to 500,> 10000,≤ 100
"Cn1ncc2c(SCC(=O)c3ccc(CNC(=O)C(C)(C)C)s3)nc(C(F)F)nc21 [Example 21, N-((5-(2-((6-(difluoromethyl)-1-methyl-1H-pyrazolo[3,4-d]pyrimidin-4-yl)thio)acetyl)thiophen-2-yl)methyl)pivalamide]",500 to 1000,> 10000,≤ 100
"Cc1ccc2oc(SCC(=O)c3ccc(CNC(=O)C(C)(C)C)s3)nc2n1 [Example 23, N-((5-(2-((5-methyloxazolo[4,5-b]pyridine-2-yl)thio)acetyl)thiophen-2-yl)methyl)pivalamide]",100 to 500,1000 to 10000,≤ 100
"CC1CCN(Cc2ccc(C(=O)CSc3ncnc4c3cnn4C)s2)C1=O (stereo not drawn) [Example 24, 3-methyl-1-((5-(2-((1-methyl-1H-pyrazolo[3,4-d]pyrimidin-4-yl)thio)acetyl)thiophen-2-yl)methyl)pyrrolidin-2-one]",100 to 500,> 10000,≤ 100
"Cn1ncc2c(SCC(=O)c3ccc(CN4CCCC4=O)s3)ncnc21 [Example 25, 1-((5-(2-((1-methyl-1H-pyrazolo[3,4-d]pyrimidin-4-yl)thio)acetyl)thiophen-2-yl)methyl)pyrrolidin-2-one]",100 to 500,> 10000,≤ 100
"O=C(CSc1nc(C(F)(F)F)nc2ccccc12)c1ccc(CCN2CCCC2=O)s1 [Example 26, 1-(2-(5-(2-((2-(trifluoromethyl)quinazolin-4-yl)thio)acetyl)thiophen-2-yl)ethyl)pyrrolidin-2-one]",100 to 500,> 10000,≤ 100
"Cn1ncc2c(SCC(=O)c3cc(F)c(CNC(=O)C(C)(C)C)s3)ncnc21 [Example 28, N-((3-fluoro-5-(2-((1-methyl-1H-pyrazolo[3,4-d]pyrimidin-4-yl)thio)acetyl)thiophen-2-yl)methyl)pivalamide]",500 to 1000,> 10000,≤ 100
"CC(C)(C)C(=O)NCCc1ccc(C(=O)CSc2nc(C(F)(F)F)nc3ccccc23)s1 [Example 29, N-(2-(5-(2-((2-(trifluoromethyl)quinazolin-4-yl)thio)acetyl)thiophen-2-yl)ethyl)pivalamide]",100 to 500,> 10000,≤ 100
"Cn1ncc2c(SCC(=O)c3ccc(CNC(=O)c4ccccc4)s3)ncnc21 [Example 30, N-((5-(2-((1-methyl-1H-pyrazolo[3,4-d]pyrimidin-4-yl)thio)acetyl)thiophen-2-yl)methyl)benzamide]",≤ 100,> 10000,≤ 100

# Other lines, results leading:
IC50 [1] [nM],IC50 [2] [nM],IC50 [3] [nM],SMILES
100 to 500,> 10000,≤ 100,"CN(Cc1ccc(C(=O)CSc2ncnc3c2cnn3C)s1)C(=O)C(C)(C)C [Example 33, N-methyl-N-((5-(2-((1-methyl-1H-pyrazolo[3,4-d]pyrimidin-4-yl)thio)acetyl)thiophen-2-yl)methyl)pivalamide]"
100 to 500,> 10000,≤ 100,"CN(Cc1ccc(C(=O)CSc2ncnc3c2cnn3C)s1)C(=O)C1CC1 [Example 34, N-methyl-N-((5-(2-((1-methyl-1H-pyrazolo[3,4-d]pyrimidin-4-yl)thio)acetyl)thiophen-2-yl)methyl)cyclopropanecarboxamide]"
100 to 500,> 10000,≤ 100,"Cc1nc(SCC(=O)c2ccc(CNC(=O)C3CC3)s2)c2ccccc2n1 [Example 35, N-((5-(2-((2-methylquinazolin-4-yl)thio)acetyl)thiophen-2-yl)methyl)cyclopropanecarboxamide]"
≤ 100,> 10000,≤ 100,"O=C(CSc1nc(C(F)(F)F)nc2ccccc12)c1ccc(CCNC(=O)C2CC2)s1 [Example 36, N-(2-(5-(2-((2-(trifluoromethyl)quinazolin-4-yl)thio)acetyl)thiophen-2-yl)ethyl)cyclopropanecarboxamide]"
1000 to 10000,> 10000,≤ 100,"O=C(NCCc1ccc(C(=O)CSc2nc(C(F)(F)F)nc3ccccc23)s1)c1ccccc1 [Example 37, N-(2-(5-(2-((2-(trifluoromethyl)quinazolin-4-yl)thio)acetyl)thiophen-2-yl)ethyl)benzamide]"
≤ 100,> 10000,≤ 100,"CC(C)(C)C(=O)NCc1ccc(C(=O)CSc2nc(C(F)(F)F)nc3ccccc23)s1 [Example 38, N-((5-(2-((2-(trifluoromethyl)quinazolin-4-yl)thio)acetyl)thiophen-2-yl)methyl)pivalamide]"
100 to 500,> 10000,≤ 100,"CC(C)(C)C(=O)NCc1ccc(C(=O)CSc2nncc3ccccc23)s1 [Example 193, N-((5-(2-(phthalazin-1-ylthio)acetyl)thiophen-2-yl)methyl)pivalamide]"
100 to 500,> 10000,≤ 100,"Cc1nnc(SCC(=O)c2ccc(CNC(=O)C(C)(C)C)s2)c2ccccc12 [Example 194, N-((5-(2-((4-methylphthalazin-1-yl)thio)acetyl)thiophen-2-yl)methyl)pivalamide]"
